Experiments:
HsCht [1] = target: T1, HsCht (Homo sapiens, UniProt Q13231); experiment: Tryptophan fluorescence quenching spectroscopy; assay type: binding
T1 construct: the catalytic domains of OfChtI from Ostrinia furnacalis (O. furnacalis), human HsCht and acidic mammalian chitinase (AMCase); made in house; host or cells: Pichia pastoris GS115 (secreted)
Text: (§1) The recombinant GH18 chitinases for inhibitory activity evaluation including OfChi-h and the catalytic domains of OfChtI from Ostrinia furnacalis (O. furnacalis), human HsCht and acidic mammalian chitinase (AMCase) were extracellularly expressed in Pichia pastoris GS115. SmChiA from Serratia marcescens was expressed in Escherichia coli BL21 (DE3). All the proteins were purified from the culture medium by immobilized metal affinity chromatography (IMAC) as described previously ([Chen et al., 2014]). The purities of the target proteins were analyzed by SDS-PAGE followed by Coomassie Brilliant Blue R-250 staining.
(§2) All tryptophan fluorescence spectroscopy experiments were performed using the Infinite® 200 PRO microplate reader (Tecan, Swiss). The excitation wavelength was fixed to 285 nm and emission spectra were collected between 320 and 450 nm with a slit width of 2 nm. The temperature was maintained at 30°C. Fluorescence quenching experiments were performed in a 100 μL mixture containing 1 μM protein in the 20 mM sodium phosphate buffer (pH 6.0 for OfChi-h, OfChtI, HsCht and SmChiA, and pH 5.2 for AMCase), and by the successive addition of 1 μL compounds stock solution. The inhibitor concentration varied according to the enzyme activity. The dissociation constant (K d) value was analyzed by nonlinear regression with the “One Site-Specific Binding” model using GraphPad Prism 7.04.

SmChiA [2] = target: T2, SmChiA (Serratia marcescens, UniProt P07254); experiment: Tryptophan fluorescence quenching spectroscopy; assay type: binding
T2 construct: made in house; host or cells: Escherichia coli BL21 (DE3)
Text: as §1, §2

AMCase [3] = target: T3, AMCase (Homo sapiens, UniProt Q9BZP6); experiment: Tryptophan fluorescence quenching spectroscopy; assay type: binding
T3 construct: the catalytic domains of OfChtI from Ostrinia furnacalis (O. furnacalis), human HsCht and acidic mammalian chitinase (AMCase); made in house; host or cells: Pichia pastoris GS115 (secreted)
Text: as §1, §2

OfChi-h [4] = target: T4, OfChi-h (Ostrinia furnacalis, UniProt Q4AE59); experiment: Tryptophan fluorescence quenching spectroscopy; assay type: binding
T4 construct: made in house; host or cells: Pichia pastoris GS115 (secreted)
Text: as §1, §2

OfChtI [5] = target: T5, OfChtI (Ostrinia furnacalis, UniProt Q2V6H4); experiment: Tryptophan fluorescence quenching spectroscopy; assay type: binding
Text: as §1, §2

HsCht [6] = target: T1, HsCht; experiment: Inhibitory activity determination with MU-β-(GlcNAc)2, Dixon plots; assay type: biochemical
Text: as §1
(§3) 20 nM enzyme was incubated with 10 μL substrate [0.2 μM MU-β-(GlcNAc)2] in 20 mM sodium phosphate buffer (pH 6.0 for OfChi-h, OfChtI, HsCht and SmChiA, and pH 5.2 for AMCase) containing 2 μL inhibitor at 30°C. The reaction in the absence of inhibitor and substrate was used as the control. After 30 min, an equal volume of 0.5 M Na2CO3 was added to the reaction mixture to stop the reaction, and the fluorescence of the released MU was quantitated using an Infinite® 200 PRO microplate reader (Tecan, Swiss) with excitation and emission wavelengths of 360 and 450 nm, respectively. Experiments were performed in triplicate. For the determination of the mode of inhibition and the inhibition constant (K i) value, the reaction mixtures contained three MU-β-(GlcNAc)2 concentrations (5, 10 and 20 μM for OfChi-h, AMCase and SmChiA; 5, 7.5 and 10 μM for HsCht; and 1, 2 and 4 μM for OfChtI). The inhibitor concentration varied according to the inhibitory activity. The Ki values and types of inhibition were determined by linear fitting of data in Dixon plots.

SmChiA [7] = target: T2, SmChiA; experiment: as above; assay type: biochemical
Text: as §1, §3

AMCase [8] = target: T3, AMCase; experiment: as above; assay type: biochemical
Text: as §1, §3

OfChi-h [9] = target: T4, OfChi-h; experiment: as above; assay type: biochemical
Text: as §1, §3

OfChtI [10] = target: T5, OfChtI; experiment: as above; assay type: biochemical
Text: as §1, §3

T5 sequence (Q2V6H4 19-407): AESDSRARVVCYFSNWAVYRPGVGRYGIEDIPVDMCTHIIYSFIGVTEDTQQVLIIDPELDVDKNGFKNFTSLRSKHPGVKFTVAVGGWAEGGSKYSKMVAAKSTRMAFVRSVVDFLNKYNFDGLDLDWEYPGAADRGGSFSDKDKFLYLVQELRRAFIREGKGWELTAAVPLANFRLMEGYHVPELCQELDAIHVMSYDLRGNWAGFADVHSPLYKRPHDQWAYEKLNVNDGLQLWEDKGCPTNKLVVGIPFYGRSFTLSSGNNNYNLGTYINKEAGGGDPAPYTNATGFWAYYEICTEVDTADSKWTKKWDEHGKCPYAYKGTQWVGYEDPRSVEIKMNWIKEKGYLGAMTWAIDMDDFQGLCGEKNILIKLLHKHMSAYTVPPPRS
T4 sequence (Q4AE59 18-553): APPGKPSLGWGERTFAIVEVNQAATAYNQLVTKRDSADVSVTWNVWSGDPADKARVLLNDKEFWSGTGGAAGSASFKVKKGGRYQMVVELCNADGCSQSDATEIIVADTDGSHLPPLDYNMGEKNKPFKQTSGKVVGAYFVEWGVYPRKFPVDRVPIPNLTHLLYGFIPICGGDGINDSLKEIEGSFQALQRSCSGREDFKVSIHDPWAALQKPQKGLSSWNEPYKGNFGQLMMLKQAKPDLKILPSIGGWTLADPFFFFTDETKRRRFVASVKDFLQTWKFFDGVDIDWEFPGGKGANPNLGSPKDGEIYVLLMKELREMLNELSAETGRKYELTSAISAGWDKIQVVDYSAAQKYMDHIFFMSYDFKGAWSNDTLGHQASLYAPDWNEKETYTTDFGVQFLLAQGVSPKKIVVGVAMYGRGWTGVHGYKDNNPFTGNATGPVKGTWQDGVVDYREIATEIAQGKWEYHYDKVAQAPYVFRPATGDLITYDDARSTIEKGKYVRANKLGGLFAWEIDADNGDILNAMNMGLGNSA
T3 sequence (Q9BZP6 22-390 limits assumed): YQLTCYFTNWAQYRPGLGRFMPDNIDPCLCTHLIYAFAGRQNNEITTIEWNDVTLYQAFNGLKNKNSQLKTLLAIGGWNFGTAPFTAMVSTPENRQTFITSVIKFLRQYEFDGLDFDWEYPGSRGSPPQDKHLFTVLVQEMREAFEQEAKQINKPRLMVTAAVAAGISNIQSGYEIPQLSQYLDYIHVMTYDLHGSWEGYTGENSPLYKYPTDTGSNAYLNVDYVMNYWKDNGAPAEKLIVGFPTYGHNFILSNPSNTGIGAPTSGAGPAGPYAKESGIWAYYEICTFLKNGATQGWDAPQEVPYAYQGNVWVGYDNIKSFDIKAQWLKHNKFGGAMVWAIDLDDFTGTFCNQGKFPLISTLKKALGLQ
T1 sequence (Q13231 22-388 limits assumed): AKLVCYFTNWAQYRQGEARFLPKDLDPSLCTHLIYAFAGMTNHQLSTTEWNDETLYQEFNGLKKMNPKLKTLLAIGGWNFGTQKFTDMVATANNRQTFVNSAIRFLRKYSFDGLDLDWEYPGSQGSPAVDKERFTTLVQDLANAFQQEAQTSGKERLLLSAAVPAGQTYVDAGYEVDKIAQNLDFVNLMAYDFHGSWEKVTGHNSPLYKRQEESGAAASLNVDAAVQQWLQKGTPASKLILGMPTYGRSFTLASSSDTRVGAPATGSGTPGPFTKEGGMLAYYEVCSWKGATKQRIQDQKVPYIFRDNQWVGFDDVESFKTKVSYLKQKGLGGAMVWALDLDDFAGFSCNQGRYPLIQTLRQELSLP
T2 sequence (P07254 24-563): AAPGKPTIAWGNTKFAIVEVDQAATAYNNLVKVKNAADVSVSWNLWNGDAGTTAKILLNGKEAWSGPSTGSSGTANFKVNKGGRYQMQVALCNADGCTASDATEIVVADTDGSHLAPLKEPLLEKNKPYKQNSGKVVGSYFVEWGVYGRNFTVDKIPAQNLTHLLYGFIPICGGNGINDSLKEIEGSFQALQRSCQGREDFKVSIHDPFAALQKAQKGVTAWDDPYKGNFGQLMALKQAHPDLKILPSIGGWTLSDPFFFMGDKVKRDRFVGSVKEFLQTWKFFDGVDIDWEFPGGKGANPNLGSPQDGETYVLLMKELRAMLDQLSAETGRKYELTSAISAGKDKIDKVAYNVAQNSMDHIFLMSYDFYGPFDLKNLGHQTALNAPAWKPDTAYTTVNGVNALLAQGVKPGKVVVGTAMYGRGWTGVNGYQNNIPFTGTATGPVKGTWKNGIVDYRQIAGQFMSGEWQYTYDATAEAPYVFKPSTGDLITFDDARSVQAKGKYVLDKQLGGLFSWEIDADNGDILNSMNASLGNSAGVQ

Question: What does the source list for `C[C@H]1O[C@H](O[C@H]2[C@H](O)[C@@H](O)[C@@H](O)[C@H](O)[C@@H]2O)[C@@H](N)C[C@@H]1NC(=N)C(=O)O` [kasugamycin, Kasugamycin]?
Answer: Kd (HsCht [1]): 0.92 µM; Kd (SmChiA [2]): 34.1 µM; Kd (AMCase [3]): 15.8 µM; Kd (OfChi-h [4]): 11.5 µM; Kd (OfChtI [5]): 3.96 µM; increase of K i in buffer containing 1.0 M NaCl (HsCht [6]; 1.0 M NaCl vs. standard buffer): 6 fold; Ki (HsCht [6]; K i in the buffer with 1.0 M NaCl, buffer containing 1.0 M NaCl): 1.62 µM; Ki (HsCht [6]; K i, 20 mM sodium phosphate buffer pH 6.0, 30°C): 0.25 µM; mode of inhibition (HsCht [6]; inhibition kinetics): competitive; Ki (SmChiA [7]): 29 µM; mode of inhibition (SmChiA [7]; SmChiA, inhibition kinetics): competitive; Ki (AMCase [8]): 6.27 µM; mode of inhibition (AMCase [8]; AMCase, inhibition kinetics): competitive; Ki (OfChi-h [9]): 2.7 µM; mode of inhibition (OfChi-h [9]; OfChi-h, inhibition kinetics): competitive; Ki (OfChtI [10]): 0.47 µM; mode of inhibition (OfChtI [10]; OfChtI, inhibition kinetics): competitive; inhibition at 10 µM (OfChtI [10]; at 10 μM, preliminary screening of a natural products library, read-out: inhibition against OfChtI): 92.5%
